Source: patent US20130244255A1, “ANTIBODIES DIRECTED TO GPNMB AND USES THEREOF” (priority 2006, published 2013)

Tests used:
human interleukin-8 = assay: Plasma human IL-8 (ELISA) in SK-MEL-2 xenograft-bearing athymic mice; type: in vivo
Method: Interleukin-8 (IL-8) was measured by an enzyme-linked immunosorbent assay using a commercial kit (Human CXCL8/IL-8 Quantikine ELISA Kit, 3rd Generation; R&D Systems, Minneapolis, Minn.), which recognizes human, but not mouse, IL-8. Assays were conducted according to the manufacturer's instructions in which the IL-8 was detected by binding to IL-8 specific mAb pre-coated onto 96-well microliter plate. Standards and samples were pipetted into the wells and human IL-8 was bound by the immobilized antibody. After washing away the unbound substances, horseradish peroxidase-conjugated IL-8 specific polyclonal antibody was added to the wells. Following a wash, substrate solution was added and color developed; the plate was read on an ELISA plate reader. Results were calculated from a standard curve, generated by a four-parameter logistic curve fit, and expressed in picograms per milliliter. The lower limit of quantitation of the assay was 3.5 pg/mL and for each timepoint, n=3 mice. No human IL-8 could be detected in the blood of normal (non-tumor-bearing) athymic mice.
Plasma concentrations of human IL-8 were measured by the species-specific ELISA assay described in Materials and Methods. At the beginning of treatment (day 16), the human IL-8 level in plasma was 29.8 pg/ml. […] At day 30 (14 days after treatment), plasma IL-8 level was not detected and remained undetectable for the duration of the experiment (FIG. 26).

CG56972 = target: T1, CG56972 (Homo sapiens, UniProt Q14956); assay: Flow cytometry of CR011 binding to cell surface CG56972/GPNMB (GMR)
T1 construct: endogenous in cells; host or cells: SK-MEL-2, XF-498, U-118-MG, SNB-78, SF-539, SF-268 and further human lines (ATCC / NCI)
T1 sequence (Q14956 23-572): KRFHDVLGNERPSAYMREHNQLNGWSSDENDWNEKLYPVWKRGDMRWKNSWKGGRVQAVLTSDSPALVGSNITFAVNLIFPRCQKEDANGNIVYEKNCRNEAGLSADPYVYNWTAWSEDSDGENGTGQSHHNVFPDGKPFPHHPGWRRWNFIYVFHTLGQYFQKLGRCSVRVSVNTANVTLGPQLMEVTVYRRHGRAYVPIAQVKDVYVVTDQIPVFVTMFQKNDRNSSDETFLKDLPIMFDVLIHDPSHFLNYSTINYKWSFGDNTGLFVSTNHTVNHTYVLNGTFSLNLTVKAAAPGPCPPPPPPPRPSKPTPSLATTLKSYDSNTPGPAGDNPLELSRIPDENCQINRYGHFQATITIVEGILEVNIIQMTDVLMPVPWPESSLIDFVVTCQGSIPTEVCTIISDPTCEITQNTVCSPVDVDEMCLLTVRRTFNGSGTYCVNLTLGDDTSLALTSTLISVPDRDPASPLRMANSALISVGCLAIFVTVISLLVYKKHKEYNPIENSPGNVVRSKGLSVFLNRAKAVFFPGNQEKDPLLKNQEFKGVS
Method: Quantitative analysis of GPNMB expression on the cell surface of cell lines was determined by flow cytometry. […] Cells were fixed in 1% paraformaldehyde/PBS and examined on a Becton Dickinson FACSCalibur flow cytometer. Data analysis was performed with Becton Dickinson Cell Quest software version 3.3 and the geometric mean fluorescence intensity ratio (GMR) was determined for each cell type.
Quantitative analysis of CG56972 expression on the surface of cell lines was determined by flow cytometry (FACS). […] Cells were fixed in 1% paraformaldehyde/PBS and examined on a Becton Dickinson FACSCalibur flow cytometer. Data analysis was performed with Becton Dickinson Cell Quest software version 3.3 and the geometric mean fluorescence intensity ratio (GMR) was determined for each cell type.

SK-Mel-2 cells [1] = assay: Apoptosis analysis (Annexin V-FITC / PI); type: cell-based, human; conditions: SK-Mel-2, 48 hour, 1000 ng/mL
Method: (§1) Briefly, cells were pulsed at the indicated times with 30 μM of bromodeoxyuridine (BrdU, Sigma) for 30 min, harvested, fixed and permeabilized in methanol. Nascent DNA synthesis was detected by anti-bromodeoxyuridine-FITC (BD Biosciences, San Jose, Calif.) staining. Total DNA content was detected using propidium iodide (PI, Sigma). For apoptosis analysis, cells were treated as above and labeled with Annexin V-FITC followed by propidium iodide exclusion using the Annexin V-FITC Apoptosis Detection kit I (BD PharMingen, San Diego, Calif.) according to the manufacturer's protocols. Flow cytometry (as described in the previous Example) was used to assay both cell cycle and apoptosis studies.
(§2) To investigate this possibility, analysis of apoptosis using Annexin-V surface binding and loss of propidium iodide (PI) exclusion was performed.

TK-10 control cells = assay: Apoptosis analysis (Annexin V-FITC / PI); type: cell-based, human; conditions: TK-10, 48 hour, 1000 ng/mL
Method: as §1, §2

SK-Mel-2 cells [2] = assay: ADCC assay with human PBMC (DELFIA EuTDA cytotoxicity); type: cell-based; conditions: 30 to 100 fold PBMC; 2, 5, 10 μg/200 μl mAb
Method: Human PBMC were isolated from whole blood using a Ficoll-Plaque. Briefly, in a 50 mL tube, 15 mL of PBS was added to 20 mL of whole blood which was underlayed with 10 mL Ficoll-Plaque and the tube was centrifuged at 2000 RPM. Mononuclear cells were collected from the interface and washed 3 times with PBS. The ADCC assay was carried out in a 96 well plate using a fluorescence assay for cytolysis from Perkin-Elmer (DELFIAEuTDA Cytotoxic assay). The procedure is based on loading target cells with a fluorescence enhancing ligand (BATDA, bis (acetoxymethyl) terpyridine—dicarboxylate). The hydrophic ligand penetrates the membrane quickly. Within the cell the esterbonds are hydrolyzed to form a hydrophilic ligand (TDA, terpyridine—dicarboxylic acid) which can no longer pass through the membrane. After cytolysis the ligand is released and introduced to the Europium solution. The europium and the ligand form a highly fluorescent and stable chelate (EuTDA). Fluorescence intensity are recorded using excitation and emission wavelengths as λex=340 nm and λem=613 nm, respectively.

[3] = system: CG56972-expressing cancer cell lines; assay: Growth of CG56972-expressing cells with naked CR011; type: cell-based, human; conditions: used directly, unconjugated
[4] = system: CG56972-expressing cancer cells; assay: Growth inhibition by CR011 with saporin-conjugated secondary antibody; type: cell-based, human; conditions: data not shown

## CR011-vcMMAE: CR011 conjugated to monomethyl auristatin E through a protease cleavable valine-citrulline linker; approx. 4 drugs per antibody
Human interleukin-8; 1 mg/kg single bolus, day 17.5 (1.5 days after treatment)
  plasma IL-8 level: 46.3 pg/mL
Human interleukin-8; 1 mg/kg single bolus, day 58 (42 days after treatment)
  plasma IL-8 level: 414.63 pg/mL
Human interleukin-8; 10 mg/kg single bolus, day 17.5 (1.5 days after treatment)
  plasma IL-8 level: 52.85 pg/mL
Human interleukin-8; 10 mg/kg single bolus, day 23 (7 days after treatment)
  plasma IL-8 level: 24.39 pg/mL
Human interleukin-8; 10 mg/kg single bolus, day 30 (14 days after treatment) and after, lower limit of quantitation 3.5 pg/mL
  plasma IL-8 level: not detected

## CR011: fully human monoclonal antibody that specifically binds to GPNMB; VH SEQ ID NO: 20, VL SEQ ID NO: 29
CG56972; SF-268, CR011 10 μg/mL
  surface staining above control mAb background: around 1.5 fold
CG56972; SF-539, CR011 10 μg/mL
  surface staining above isotype control mAb background: at least 1.5 fold
CG56972; SK-MEL-2
  cell surface staining (in words): strong cell surface staining
CG56972; SNB-78, CR011 10 μg/mL
  surface staining above isotype control mAb background: at least 1.5 fold
CG56972; U-118-MG, CR011 10 μg/mL
  surface staining above isotype control mAb background: at least 1.5 fold
CG56972; XF-498, CR011 10 μg/mL
  surface staining above isotype control mAb background: at least 1.5 fold
SK-Mel-2 cells [1]
  % AnnV+/PI+ UR: 0.45%
  % AnnV+/PI− LR: 4.74%
  % AnnV−/PI+ UL: 0.36%
TK-10 control cells
  % AnnV+/PI+ UR: 0.34%
  % AnnV+/PI− LR: 0.55%
  % AnnV−/PI+ UL: 0.83%
SK-Mel-2 cells [2]
  cytolysis of SK-MEL-2 cells (ADCC): did not show any cytolysis
[3]
  effect of naked antibody on CG56972 expressing cells (in words): did not inhibit the growth
[3]; listed as CR011 IgG2 mAb
  effect of naked antibody on CG56972 expressing cells (in words): no effect
[4]
  growth inhibition with saporin-conjugated secondary antibody (in words): could specifically inhibit the growth
